Experimental data taken from patent publication US20240279227A1, “FUSED HETEROCYCLIC DERIVATIVES” (Janssen Sciences Ireland Unlimited Company, priority 2021, published 2024).

Assays:
[1] = Cytotoxicity, ATPlite Luminescence Assay; type: cell-based, human; details: human, HepG2 or HepG2.117 cells, 3-days incubation unless marked with *, ATPlite viability
Protocol: Cytotoxicity of the compounds was tested using HepG2 or HepG2.117 cells, incubated for 3 or 4 days in the presence of compounds. The viability of the cells was assessed using the PERKIN ELMER ATPlite Luminescence Assay System.”

[2] = Human liver microsome stability; type: in vitro ADME; details: human, pooled human liver microsomes, pH 7.4, pooled human liver microsomes 0.5 mg/mL, 1 μM compound, NADPH 1 mM, pH 7.4, 37° C., 0-60 min; read-out: HLM Metabolism t1/2
Protocol: Pooled human liver microsomes (0.5 mg/mL) was pre-incubated with 1 μM test compounds or control compounds (verapamil, warfarin and cerivastatin) in 0.1 M phosphate buffer pH 7.4 containing 1 mM MgCl2 at 37° C. The final concentration of DMSO and acetonitrile are 0.05% and 0.2%, respectively. All incubations are performed singularly for each compound. NADPH was added to initiate the reaction with the final concentration of 1 mM and the final incubation volume of 400 μL.
At 6 time points (0, 5, 10, 20, 40 and 60 min) reactions were stopped by the removal of 50 μL of the incubation mixture into plates containing acetonitrile at a of 1:3 (v:v). The plates were centrifuged at 3000 rpm for 10 min at 4° C. to precipitate the protein. Following protein precipitation, the sample supernatants were combined in cassettes of up to 8 compounds. The internal standard was added (1:1 supernatant to internal standard solution) and samples were analyzed using standard LC-MS conditions.
From a plot of ln peak area ratio (compound peak area/internal standard peak area) against time, the gradient of the line is determined. Subsequently, half-life is calculated using the equations below: […]

[3] = system: HBV; test: Anti-HBV activity in HepG2.117 cell line (intracellular HBV DNA, real-time PCR); type: cell-based, hepatitis B virus; details: HepG2.117 cells, HBV replication induced, 3 days of treatment, intracellular HBV DNA by real-time PCR
Protocol: The anti HBV activity was measured using the HepG2.117 cell line, a stable, inducibly HBV producing cell line, which replicates HBV in the absence of doxycycline (Tet-off system). The HepG2 cell line is available from ATCCR under number HB-8065. Transfection of the HepG2 cell line can be as described in Sun and Nassal 2006 Journal of Hepatology 45 (2006) 636-645 “Stable HepG2-and Huh7-based human hepatoma cell lines for efficient regulated expression of infectious hepatitis B virus”.
For the antiviral assay, HBV replication was induced, followed by a treatment with serially diluted compound in 96-well plates. After 3 days of treatment, the antiviral activity was determined by quantification of intracellular HBV DNA using real-time PCR and an HBV specific primer set and probe.

[4] = Hepatitis B virus, HepG2.117, 72 h

Compound	CC50 [1] [µM]	half-life at 1 μM [2] [h]	EC50 [3] [µM]	EC50 [3, 4] [µM]
CC(c1ccc(OC(F)F)nc1)N1C[C@@H](C(N)=O)n2nc3c(c2C1=O)CN(C(=O)c1ccc(Cl)c(Cl)c1)[C@H](C)C3 (single isomer, unassigned) [Compound 12A, (3R,7S)-2-(3,4-Dichlorobenzoyl)-9-((R*)-1-(6-(difluoromethoxy)pyridin-3-yl)ethyl)-3-methyl-10-oxo-1,2,3,4,7,8,9,10-octahydropyrido[4′,3′:3,4]pyrazolo[1,5-a]pyrazine-7-carboxamide]	24.4	> 3	0.059	–
CNC(=O)[C@@H]1CN(C(C)c2ccc(S(C)(=O)=O)cc2)C(=O)c2c3c(nn21)C[C@@H](C)N(C(=O)c1ccc(Cl)c(C(F)(F)F)c1)C3 (single isomer, unassigned) [Compound 19A, (3R,7S)-2-(4-Chloro-3-(trifluoromethyl)benzoyl)-N,3-dimethyl-9-((R*)-1-(4-(methylsulfonyl)phenyl)ethyl)-10-oxo-1,2,3,4,7,8,9,10-octahydropyrido[4′,3′:3,4]pyrazolo[1,5-a]pyrazine-7-carboxamide]	> 50	> 3	0.12	–
CNC(=O)[C@@H]1CN([C@@H](C)c2ccc(OC(F)F)cc2)C(=O)c2c3c(nn21)C[C@@H](C)N(C(=O)c1ccc(Cl)c(C(F)F)c1)C3 [Compound 25, (3R,7S)-2-(4-Chloro-3-(difluoromethyl)benzoyl)-9-((S)-1-(4-(difluoromethoxy)phenyl)ethyl)-N,3-dimethyl-10-oxo-1,2,3,4,7,8,9,10-octahydropyrido[4′,3′:3,4]pyrazolo[1,5-a]pyrazine-7-carboxamide]	> 50	1.3	–	0.01
CNC(=O)[C@@H]1CN(C(C)c2ccc(C)nn2)C(=O)c2c3c(nn21)C[C@@H](C)N(C(=O)c1ccc(Cl)c(Cl)c1)C3 (single isomer, unassigned) [Compound 1B, (3R,7S)-2-(3,4-Dichlorobenzoyl)-N,3-dimethyl-9-((S*)-1-(6-methylpyridazin-3-yl)ethyl)-10-oxo-1,2,3,4,7,8,9,10-octahydropyrido[4′,3′:3,4]pyrazolo[1,5-a]pyrazine-7-carboxamide]	> 50	> 3	–	0.38
CNC(=O)[C@@H]1CN([C@@H](C)c2ccc(OC(F)F)cc2)C(=O)c2c3c(nn21)C[C@@H](C)N(C(=O)c1ccc(Cl)c(Cl)c1)C3 [Compound 16B, (3R,7S)-2-(3,4-dichlorobenzoyl)-9-((S)-1-(4-(difluoromethoxy)phenyl)ethyl)-N,3-dimethyl-10-oxo-1,2,3,4,7,8,9,10-octahydropyrido[4′,3′:3,4]pyrazolo[1,5-a]pyrazine-7-carboxamide]	16.9	> 3	–	0.02
CNC(=O)[C@@H]1CN([C@@H](C)c2cnc(C(F)(F)F)cn2)C(=O)c2c3c(nn21)C[C@@H](C)N(C(=O)c1ccc(Cl)c(Cl)c1)C3 [Compound 6B, (3R,7S)-2-(3,4-Dichlorobenzoyl)-N,3-dimethyl-10-oxo-9-((S)-1-(5-(trifluoromethyl)pyrazin-2-yl)ethyl)-1,2,3,4,7,8,9,10-octahydropyrido[4′,3′:3,4]pyrazolo[1,5-a]pyrazine-7-carboxamide]	> 50	> 3	–	0.092
CNC(=O)[C@@H]1CN(C(C)c2ccc(C3CC3)nc2)C(=O)c2c3c(nn21)C[C@@H](C)N(C(=O)c1ccc(Cl)c(Cl)c1)C3 (single isomer, unassigned) [Compound 32A, (3R,7S)-9-((R*)-1-(6-Cyclopropylpyridin-3-yl)ethyl)-2-(3,4-dichlorobenzoyl)-N,3-dimethyl-10-oxo-1,2,3,4,7,8,9,10-octahydropyrido[4′,3′:3,4]pyrazolo[1,5-a]pyrazine-7-carboxamide]	> 50	2.12	0.055	–
CNC(=O)[C@@H]1CN([C@@H](C)c2ccc(OC(F)F)cc2)C(=O)c2c3c(nn21)C[C@@H](C)N(C(=O)c1ccc(Cl)c(C(F)(F)F)n1)C3 [Compound 45, (3R,7S)-2-(5-Chloro-6-(trifluoromethyl)picolinoyl)-9-((S)-1-(4-(difluoromethoxy)phenyl)ethyl)-N,3-dimethyl-10-oxo-1,2,3,4,7,8,9,10-octahydropyrido[4′,3′:3,4]pyrazolo[1,5-a]pyrazine-7-carboxamide]	49.8	> 3	–	0.067
CNC(=O)[C@@H]1CN(C(C)c2ccc(-n3ncnc3C)cn2)C(=O)c2c3c(nn21)C[C@@H](C)N(C(=O)c1ccc(Cl)c(Cl)c1)C3 (single isomer, unassigned) [Compound 41A, (3R,7S)-2-(3,4-Dichlorobenzoyl)-N,3-dimethyl-9-((R*)-1-(5-(5-methyl-1H-1,2,4-triazol-1-yl)pyridin-2-yl)ethyl)-10-oxo-1,2,3,4,7,8,9,10-octahydropyrido[4′,3′:3,4] pyrazolo[1,5-a]pyrazine-7-carboxamide]	> 50	> 3	2.21	–
CNC(=O)[C@@H]1CN(Cc2ccc(S(=O)(=O)C3CC3)cc2)C(=O)c2c3c(nn21)C[C@@H](C)N(C(=O)c1ccc(Cl)c(C(F)(F)F)c1)C3 [Compound 21, (3R,7S)-2-(4-Chloro-3-(trifluoromethyl)benzoyl)-9-(4-(cyclopropylsulfonyl)benzyl)-N,3-dimethyl-10-oxo-1,2,3,4,7,8,9,10-octahydropyrido[4′,3′:3,4]pyrazolo[1,5-a]pyrazine-7-carboxamide]	> 50	> 3	–	0.086
C[C@@H]1Cc2nn3c(c2CN1C(=O)c1ccc(Cl)c(Cl)c1)C(=O)N([C@@H](C)c1ccc(C#N)cc1)CC3 [Ref 5, reference compound]	–	0.132	–	0.022
C[C@@H]1Cc2nn3c(c2CN1C(=O)c1ccc(Cl)c(Cl)c1)C(=O)N([C@H](C)c1ccc(C#N)cc1)CC3 [Ref 4, reference compound]	–	0.225	–	0.076
C[C@@H]1Cc2nn3c(c2CN1C(=O)c1ccc(Cl)c(C#N)c1)C(=O)N([C@H](C)c1ccc(OC(F)F)cc1)C[C@H]3C(=O)N(C)C [Compound 27A, (3R,7S)-2-(4-Chloro-3-cyanobenzoyl)-9-((R)-1-(4-(difluoromethoxy)phenyl)ethyl)-N,N,3-trimethyl-10-oxo-1,2,3,4,7,8,9,10-octahydropyrido[4′,3′:3,4]pyrazolo[1,5-a]pyrazine-7-carboxamide]	> 50	> 3	–	0.031
CNC(=O)[C@@H]1CN(C(C)c2ccccn2)C(=O)c2c3c(nn21)C[C@@H](C)N(C(=O)c1ccc(Cl)c(Cl)c1)C3 (single isomer, unassigned) [Compound 37A, (3R,7S)-2-(3,4-Dichlorobenzoyl)-N,3-dimethyl-10-oxo-9-((R*)-1-(pyridin-2-yl)ethyl)-1,2,3,4,7,8,9,10-octahydropyrido[4′,3′:3,4]pyrazolo[1,5-a]pyrazine-7-carboxamide]	> 50	> 3	–	0.089
CNC(=O)[C@@H]1CN([C@@H](C)c2ccc(C(F)(F)F)nc2)C(=O)c2c3c(nn21)C[C@@H](C)N(C(=O)c1ccc(Cl)c(C(F)(F)F)c1)C3 [Compound 15B, (3R,7S)-2-(4-chloro-3-(trifluoromethyl)benzoyl)-N,3-dimethyl-10-oxo-9-((S)-1-(6-(trifluoromethyl)pyridin-3-yl)ethyl)-1,2,3,4,7,8,9,10-octahydropyrido[4′,3′:3,4]pyrazolo[1,5-a]pyrazine-7-carboxamide]	29.8	> 3	–	0.029
CCC(c1ccc(S(C)(=O)=O)cc1)N1C[C@@H](C(=O)NC)n2nc3c(c2C1=O)CN(C(=O)c1ccc(Cl)c(Cl)c1)[C@H](C)C3 (single isomer, unassigned) [Compound 22A, (3R,7S)-2-(3,4-Dichlorobenzoyl)-N,3-dimethyl-9-((R*)-1-(4-(methylsulfonyl)phenyl)propyl)-10-oxo-1,2,3,4,7,8,9,10-octahydropyrido[4′,3′:3,4]pyrazolo[1,5-a]pyrazine-7-carboxamide]	> 50	> 3	0.27	–
CC(c1ccccn1)N1CCn2nc3c(c2C1=O)CN(C(=O)c1ccc(Cl)c(Cl)c1)[C@H](C)C3 (mixture of isomers) [Ref 3, reference compound]	–	0.11	–	0.072
